These are literature values, as cited in patent publication EP4088834A1, “INORGANIC COATED SAND” (Kao Corporation, priority 2020, dated 2021).

The conditions of this data set: 25°C.

Regarding `[O]=[Ca]` [calcium oxide], the solubility in water was 1190 µg/mL.
